According to publication PMC8620685, “Effect of Selected Silyl Groups on the Anticancer Activity of 3,4-Dibromo-5-Hydroxy-Furan-2(5H)-One Derivatives” (Pharmaceuticals, 2021):
Like-named read-outs stand apart in the source and are kept apart here.

Assays:
A549 = test: MTT assay, NSCLC cell line A549; type: cell-based, human; conditions: for IC50: Homo sapiens, read-out: IC50 (cytotoxicity), A549; for SI: selectivity, A549 versus BEAS-2B
Procedure: (§1) One of the major drawbacks of currently used anticancer drugs is their low selectivity, which often leads to undesired side effects that may be harmful to patients. Overcoming this challenging task requires special attention at the pre-clinical development level. To check whether silyl group incorporation may affect the selectivity of compounds towards cancer cells, MBA and all its new silyl derivatives were tested for their efficacy on noncancerous BEAS-2B and cancerous A549 cells line. […] In contrast, compounds 3a and 3d were more cytotoxic to A549 cells with SI values 6.05 and 1.72, respectively. Strikingly, those two compounds have similar cLogP values 3.08 and 3.22, respectively.
(§2) Human cells lines: colon cancer (HCT-116 wt, HT-29), non-small lung carcinoma (A549), and bronchial epithelial cells (BEAS-2B) were obtained from American Type Culture Collection (ATCC, Manassas, VA, USA). Isogenic cell line HCT 116 p53^−/− (deleted both p53 alleles) were a gift from Dr. Bert Vogelstein. Other cell lines, namely MCF-7, SJSA-1, U2OS, HepG2, and Hep3B were received from the collection stored at Centre of Biotechnology of Silesian University of Technology. All cells were grown in DMEM with a high glucose medium (Sigma-Aldrich, Taufkirchen, Germany) supplemented with 10% (v/v) inactivated fetal bovine serum (FBS) (EURx, Gdańsk, Poland) and 1% antibiotics (10,000 μg/mL of streptomycin and 10,000 units/ml of penicillin) (Sigma-Aldrich, Taufkirchen, Germany) at 37 °C in humidified 5% CO2. The maximum concentration of DMSO in the culture media was 0.4%.
(§3) 5 × 10^3 cells per well for the MCF-7 cell line and 2.5 × 10^3 cells per well for the other cell lines were seeded in 96-well plates to adhere for 24 h. Afterward, the cells were treated with tested compounds. After 72 hours of incubation, 50 μL 0.5 mg/ml solution of MTT (3-(4,5-dimethylthiazol-2-yl)-2,5-diphenyl-2H-tetrazolium bromide) were added to each well and the plates were incubated for 3 h at 37 °C. Next, the MTT solution was removed from the plates and formed formazan crystals were dissolved in 2-propanol (Avantor Performance Materials, Gliwice, Poland) containing 0.04 M hydrochloric acid (Avantor Performance Materials, Gliwice, Poland). The absorbance was measured at 570 nm wavelength using a multiwall plate reader (BioTek, Winooski, VT, USA). The experiment was performed at a minimum of 3 independent replicates. Cell viability was set as a percentage versus vehicle control. IC50 was defined as a concentration of a drug that decreased cell viability by 50% relative to the untreated control.

U2OS = test: MTT assay, U2OS; type: cell-based; conditions: Homo sapiens, 72 h, read-out: IC50 (cytotoxicity), U2OS
Procedure: (§4) The in vitro antitumor activities of the MBA and its derivatives (Table 2) were assayed against a panel of human cancer cell lines (HCT116, HCT-116 ^−/−p53, HT-29, MCF-7, SJSA-1, U2OS, HepG2 and Hep3B) using the MTT assay. As a reference drug we used 5-fluorouracil (5-FU). […] On the basis of in vitro antiproliferative activities, compounds 3b and 3c were selected for further mechanistic studies in the HCT-116 cell line.
as §2, §3

cleaved caspase-3 = test: Human Apoptosis Proteome Profiler array, cleaved caspase-3; type: cell-based; conditions: HCT-116, 1 h exposure, 2 × IC50 (3b at 30.2 μM)
Text: To explore in detail the molecular mechanism of apoptosis induction by compounds 3b and 3c, we employed Human Apoptosis Proteome Profiler arrays that allow quantification of apoptosis-related biomarkers (Figure 3C). […] Collectively, it can be concluded that silyl derivative 3b promotes cell death in HCT 116 cells by the alteration of expression levels of survivin and activation of caspase-3.
The Human Apoptosis Array Kit (R&D Systems, Abingdon, UK) was used to determine the levels of expression of apoptosis-related proteins. 2.5 × 10^5 HCT 116 wt cells were seeded on 100 mm dishes (Nunc, ThermoFisher, Waltham, MA, USA) and allowed to attach for 24 h. Then the medium was replaced with tested compounds at a concentration corresponding 2 × IC50 value and the cells were incubated in 37 °C. After 60 min the cells were lysed and the lysates were clarified by centrifugation for 30 min at 14,000× g. The total protein concentration was measured using the Protein Quantification Kit-Rapid (Sigma-Aldrich, Taufkirchen, Germany) according to the manufacturer’s instruction. The next steps followed instructions from the manufacturer of the Human Apoptosis Array Kit. The membranes were then scanned in the G:Box trans illuminator (Syngene, Cambridge, UK) and the protein expression levels were quantified by densitometric analysis using ImageJ software.

SJSA-1 = test: MTT assay, SJSA-1; type: cell-based; conditions: Homo sapiens, read-out: IC50 (cytotoxicity), SJSA-1
Procedure: as §4, §2, §3

HT-29 = test: MTT assay, HT-29; type: cell-based; conditions: Homo sapiens, HT-29, 72 h, read-out: IC50 (cytotoxicity), HT-29
Procedure: as §4, §2, §3

[1] = MTT assay, normal bronchial epithelium cell line BEAS-2B; type: cell-based; conditions: human
Procedure: as §1, §2, §3

HCT-116 cells = test: Cell cycle analysis (PI staining, flow cytometry); type: cell-based, human; conditions: 24 h; for effect on progression of the cell cycle / increase of the sub-G1 population / sub-G1 cells: HCT-116; for sub-G1 cells: untreated cells 0.3%
Procedure: To better understand the origin of the higher susceptibility of colon cancer cells to MBA and its novel derivatives, compounds 3b and 3c were selected to test their ability to perturb the cell cycle in the HCT-116 cell line. […] However, a significant increase in the percentage of sub-G1 cells after treatment with compounds 3b and 3c was observed. Compound 3b increased the sub-G1 population by 10% and 31%, at a concentration of 10 μM and 20 μM, respectively, while compound 3c exerts such effect only by 10% at the highest tested concentration (Figure 2).
The HCT 116 cells were seeded in 6-well plates (Nunc, ThermoFisher, Waltham, MA, USA) at a density of 5 × 10^4 cells/well. After 24 h the medium was replaced with tested compounds. The cells were incubated for 24 h at 37 °C. Afterward, floating cells were collected and adherent cells were harvested by trypsinization and centrifuged at 600× g. The cells were washed with PBS (phosphate buffered saline) (Sigma-Aldrich, Taufkirchen, Germany) and then fixed in 70% ice-cold ethanol and stored at −20 °C overnight. The next day the cells were centrifuged at 600× g, washed with PBS, treated with 100 μg/mL RNase A solution (EURx, Gdańsk, Poland), 100 μg/ml solution of propidium iodide (PI) (Acros Organics, Geel, Belgium) and incubated for 30 min at room temperature in the dark. After staining, the cells were analyzed using a Becton Dickinson FACS Aria III sorter (BD Company, San Diego, CA, USA). Experiments were repeated at least twice. Data were analyzed using ModFit LTTM Software (Verity Software House, Topsham, ME, USA).

Hep3B = test: MTT assay, Hep3B; type: cell-based; conditions: Homo sapiens, read-out: IC50 (cytotoxicity), Hep3B
Procedure: as §4, §2, §3

[2] = BEAS-2B cells (noncancerous bronchial epithelial cells), MTT, 72 h incubation, noncancerous cells, read-out: IC50 (cytotoxicity), BEAS-2B

SMILES | IC50 (A549; A549, MTT, 72 h incubation) | SI (A549) | IC50 (U2OS) | cleaved caspase-3 level (caspase-3 activation) (cleaved caspase-3) | IC50 (SJSA-1; SJSA-1, MTT, 72 h incubation) | IC50 (HT-29) | IC50 at 72 h [1, 2] | effect on progression of the cell cycle (HCT-116 cells; 10 μM) | effect on progression of the cell cycle (HCT-116 cells; 20 μM) | increase of the sub-G1 population (HCT-116 cells; 20 μM) | IC50 (Hep3B; MTT, 72 h incubation) | IC50 (A549; A549, 72 h) | IC50 (SJSA-1; SJSA-1, 72 h) | IC50 at 72 h [1] | sub-G1 cells (HCT-116 cells; 10 μM) | percentage of cells in G1 phase (HCT-116 cells; 20 μM, HCT 116, representative cytogram) | sub-G1 cells (HCT-116 cells; 20 μM) | IC50 (Hep3B; 72 h) | increase of the sub-G1 population (HCT-116 cells; 10 μM)
CC(C)(C)[Si](OC1OC(=O)C(Br)=C1Br)(c1ccccc1)c1ccccc1 (centres unmarked) [Compound 3c, 3,4-Dibromo-5-(tert-butyldiphenylsilyloxy)-furan-2(5H)-one] | 29.1 ± 1 µM | 0.70 | 10.2 ± 0.8 µM | neither the MBA nor compound 3c induced caspase-3 activation | 14.9 ± 1.5 µM | 3.9 ± 0.2 µM | 20.3 ± 0.6 µM | neither the MBA nor its silyl derivatives 3b and 3c tested at 10 μM, influenced the progression of the cell cycle | did not alter the progression of the cell cycle | 10% | 65.6 ± 2.2 µM |  |  |  |  |  |  |  | 
O=C1OC(O)C(Br)=C1Br (centres unmarked) [MBA, 3,4-dibromo-5-hydroxyfuran-2(5H)-one, reference compound] |  | 0.2 | 97.6 ± 1.1 µM | neither the MBA nor compound 3c induced caspase-3 activation |  | 97.1 ± 6.6 µM |  | neither the MBA nor its silyl derivatives 3b and 3c tested at 10 μM, influenced the progression of the cell cycle |  |  |  | 203 ± 0.3 µM | 213 ± 8.8 µM | 39.7 ± 9.7 µM | 0.7% | 38.9% | 1.6% | 125 ± 10.5 µM | 
CC(C)[Si](OC1OC(=O)C(Br)=C1Br)(C(C)C)C(C)C (centres unmarked) [Compound 3b, 3,4-Dibromo-5-(triisopropylsilyloxy)-furan-2(5H)-one] | 30.4 ± 4.2 µM | 0.41 | 9.3 ± 0.2 µM | significant up-regulation of cleaved caspase-3 | 9.9 ± 1.1 µM | 7.3 ± 0.8 µM | 12.5 ± 1.4 µM | neither the MBA nor its silyl derivatives 3b and 3c tested at 10 μM, influenced the progression of the cell cycle | did not alter the progression of the cell cycle | 31% | 21.3 ± 3.5 µM |  |  |  |  |  |  |  | 10%
